Data set [1] addresses T1, IRAK4 (Homo sapiens, UniProt Q9NWZ3).
T1 construct: expressed in transfected cells; host or cells: THP1 (THP1-HIBiT-IRAK4 engineered line)
T1 sequence (Q9NWZ3 1-460): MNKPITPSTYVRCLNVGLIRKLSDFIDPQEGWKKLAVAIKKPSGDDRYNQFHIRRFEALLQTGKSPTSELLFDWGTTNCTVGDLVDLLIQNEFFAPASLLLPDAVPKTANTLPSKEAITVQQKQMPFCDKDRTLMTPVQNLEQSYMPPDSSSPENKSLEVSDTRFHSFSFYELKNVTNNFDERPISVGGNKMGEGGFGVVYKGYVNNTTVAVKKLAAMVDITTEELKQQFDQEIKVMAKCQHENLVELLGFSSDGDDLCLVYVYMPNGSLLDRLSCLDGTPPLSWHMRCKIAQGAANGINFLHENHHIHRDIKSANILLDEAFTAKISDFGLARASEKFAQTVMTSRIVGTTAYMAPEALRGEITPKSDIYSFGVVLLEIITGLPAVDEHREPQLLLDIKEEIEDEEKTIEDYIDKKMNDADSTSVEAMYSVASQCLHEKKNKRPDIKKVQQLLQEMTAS
The experiment in a line: HiBiT-based intracellular degradation assay of THP1-HIBiT-IRAK4 cells. It counts as cell-based. The conditions noted are these: half-maximal degradation concentration of IRAK4 protein, 24 h incubation. On the procedure:
HiBiT-based intracellular degradation assay of THP1-HIBiT-IRAK4 cells
THP1-HIBiT-IRAK4 cells were cultured in RPMI 1640 medium supplemented with 10% fetal bovine serum (FBS) and 1% penicillin-streptomycin (PS) (37°C and 5% CO2). The THP1-HIBiT-IRAK4 cells were inoculated in a 384-well plate at 5000 cells/40 µL/well. Compound solutions with different concentrations were added at 40 nL/well and incubated for 24 h at 37°C in 5% CO2. HiBiT lysis detection reagents were added to the wells, the plate was incubated for 30 min at room temperature, and luminescence values were read on Envision. [formula]
The DC50 (half-maximal degradation concentration) of each compound was obtained using XLfit software and the following nonlinear fitting equation: Y = bottom + (top−bottom)/(1+10^(∧)((LogDC50−X)×Hillslope)). [formula]
X denotes a log value of the compound concentration.
Y denotes the degradation rate.
Table 1 lists the results of DC50 values of IRAK4 protein degradation. […]

A short description of data set [2]: In vivo pharmacokinetic study in mice. Particulars: male CD1 mice. The protocol: In vivo pharmacokinetic study
The pharmacokinetic behaviors of Example 1 and Example 15 in mice were studied using the following experimental protocol to evaluate their pharmacokinetic characteristics.
The mice had free access to food and water before the test.
Approximately 0.03 mL of venous blood was collected from the dorsal metatarsal vein of each mouse separately after 0.033 h, 0.083 h, 0.25 h, 0.5 h, 1 h, 2 h, 4 h, 8 h, and 24 h since intravenous injection. The blood was placed in an EDTA-K2 tube and centrifuged for 5 min at 4000 g and 4°C. The plasma was separated. The concentration of the compound in the plasma was determined through liquid chromatography-tandem mass spectrometry.
Approximately 0.03 mL of venous blood was collected from the dorsal metatarsal vein of each mouse separately after 0.083 h, 0.25 h, 0.5 h, 1 h, 2 h, 4 h, 8 h, and 24 h since oral administration. The blood was placed in an EDTA-K2 tube and centrifuged for 5 min at 4000 g and 4°C. The plasma was separated. The concentration of the compound in the plasma was determined through liquid chromatography-tandem mass spectrometry.

Setting [3] is: mouse, plasma, Intravenous Injection (2 mg/kg).

The values below come from EP4748840A1, “IMIDAZO[1,2-A]PYRIDINE TYPE IRAK DEGRADATION AGENT AND USE THEREOF” (TAINUORUI (TIANJIN) BIOTECHNOLOGY CO., LTD, priority 2023, dated 2025).

For the compound `CC(C)(O)c1cc2nc(C3CCN(CC4CCN(c5ccc6c(c5)C(=O)N(C5CCC(=O)NC5=O)C6=O)CC4)CC3)cn2cc1NC(=O)c1cccc(C(F)(F)F)n1` (centres unmarked) [Example 1], the DC50 in data set [1] is 4.53 nM. In data set [2] (oral bioavailability, Oral Administration (20 mg/kg) vs Intravenous Injection (2 mg/kg)), the F turned out to be 12.1%. The compound also had a clearance in data set [2] (setting [3]) of 59.5 mL/min/kg. The half-life was 7.88 h in data set [2] (setting [3]) and 6.81 h in data set [2] (mouse, plasma, Oral Administration (20 mg/kg)). Also, the AUC(0-t) in data set [2] (mouse, Intravenous Injection (2 mg/kg), plasma) was found to be 550 ng·h/mL; in data set [2] (mouse, Oral Administration (20 mg/kg), plasma), 626 ng·h/mL. As for `CC(C)(O)c1cc2nc(C3CCN(CC(=O)N4CCN(c5ccc6c(c5)C(=O)N(C5CCC(=O)NC5=O)C6=O)CC4)CC3)cn2cc1NC(=O)c1cccc(C(F)(F)F)n1` (centres unmarked) [Example 2, N-(2-(1-(2-(4-(2-(2,6-dioxopiperidin-3-yl)-1,3-dioxoisoindolin-5-yl)piperazin-1-yl)-2-oxoethyl)piperidin-4-yl)-7-(2-hydroxypropan-2-yl)imidazo[1,2-a]pyridin-6-yl)-6-(trifluoromethyl) pyridine-2-carboxamide], it took 4.46 nM to reach half-maximal degradation in data set [1] (DC50).

For the compound `COc1cc2nc(C3CCN(CCN4CCN(c5ccc6c(c5)CN(C5CCC(=O)NC5=O)C6=O)CC4)CC3)cn2cc1NC(=O)c1cccc(C(F)(F)F)n1` (centres unmarked) [Example 12, N-(2-(1-(2-(4-(2-(2,6-dioxopiperidin-3-yl)-1-oxoisoindolin-5-yl)piperazin-1-yl)ethyl)piperidin-4-yl)-7-methoxyimidazo[1,2-a]pyridin-6-yl)-6-(trifluoromethyl)pyridine-2-carboxamide], the DC50 in data set [1] is 1.05 nM. The same measure, in the same setting: with `CC(C)(O)c1cc2nc(C3CCN(CC4CCN(c5cc6c(cc5F)C(=O)N(C5CCC(=O)NC5=O)C6)CC4)CC3)cn2cc1NC(=O)c1cccc(C(F)(F)F)n1` (centres unmarked) [Example 23, N-(2-(1-((1-(2-(2,6-dioxopiperidin-3-yl)-6-fluoro-1-oxoisoindolin-5-yl)piperidin-4-yl)methyl)piperidin-4-yl)-7-(2-hydroxypropan-2-yl)imidazo[1,2-a]pyridin-6-yl)-6-(trifluoromethyl) pyridine-2-carboxamide] the figure was 0.95 nM; with `CC(C)(O)c1cc2nc(C3CCN(CCN4CC5(C4)CN(c4ccc6c(c4)C(=O)N(C4CCC(=O)NC4=O)C6=O)C5)CC3)cn2cc1NC(=O)c1cccc(C(F)(F)F)n1` (centres unmarked) [Example 21, N-(2-(1-(2-(6-(2-(2,6-dioxopiperidin-3-yl)-1,3-dioxoisoindolin-5-yl)-2,6-diazaspiro[3.3]heptan-2-yl)ethyl)piperidin-4-yl)-7-(2-hydroxypropan-2-yl)imidazo[1,2-a]pyridin-6-yl)-6-(trifluoromethyl)pyridine-2-carboxamide], 2.3 nM; with `CC(C)(O)c1cc2nc(C3CCN(CC4C5CN(c6ccc7c(c6)C(=O)N(C6CCC(=O)NC6=O)C7=O)CC45)CC3)cn2cc1NC(=O)c1cccc(C(F)(F)F)n1` (centres unmarked) [Example 24, N-(2-(1-((3-(2-(2,6-dioxopiperidin-3-yl)-1,3-dioxoisoindolin-5-yl)-3-azabicyclo[3.1.0]hexan-6-yl)methyl)piperidin-4-yl)-7-(2-hydroxypropan-2-yl)imidazo[1,2-a]pyridin-6-yl)-6-(trifluoromethyl)pyridine-2-carboxamide], 1.87 nM. `CC(C)(O)c1cc2nc(C3CCN(CCN4CCN(c5ccc6c(c5)C(=O)N(C5CCC(=O)NC5=O)C6=O)CC4)CC3)cn2cc1NC(=O)c1cccc(C(F)(F)F)n1` (centres unmarked) [Example 9, N-(2-(1-(2-(4-(2-(2,6-dioxopiperidin-3-yl)-1,3-dioxoisoindolin-5-yl)piperazin-1-yl)ethyl)piperidin-4-yl)-7-(2-hydroxypropan-2-yl)imidazo[1,2-a]pyridin-6-yl)-6-(trifluoromethyl)pyridine-2-carboxamide] had a DC50 in data set [1] of 0.87 nM. For the compound `CC(C)(O)c1cc2nc(C3CCN(CCC4CCN(c5ccc6c(c5)C(=O)N(C5CCC(=O)NC5=O)C6=O)CC4)CC3)cn2cc1NC(=O)c1cccc(C(F)(F)F)n1` (centres unmarked) [Example 18, N-(2-(1-(2-(1-(2-(2,6-dioxopiperidin-3-yl)-1,3-dioxoisoindolin-5-yl)piperidin-4-yl)ethyl)piperidin-4-yl)-7-(2-hydroxypropan-2-yl)imidazo[1,2-a]pyridin-6-yl)-6-(trifluoromethyl)pyridine-2-carboxamide], in data set [1], it took 4.29 nM to reach half-maximal degradation (DC50). Still for that read-out and setting: with `CC(C)(O)c1cc2nc(C3CCN(CC(=O)N4CCC5(CC4)CN(c4ccc6c(c4)C(=O)N(C4CCC(=O)NC4=O)C6=O)C5)CC3)cn2cc1NC(=O)c1cccc(C(F)(F)F)n1` (centres unmarked) [Example 5, N-(2-(1-(2-(2-(2-(2,6-dioxopiperidin-3-yl)-1,3-dioxoisoindolin-5-yl)-2,7-diazaspiro[3.5]nonan-7-yl)-2-oxoethyl)piperidin-4-yl)-7-(2-hydroxypropan-2-yl)imidazo[1,2-a]pyridin-6-yl)-6-(trifluoromethyl)pyridine-2-carboxamide] the figure was 3.69 nM; with `CC(C)(O)c1cc2nc(C3CCN(CCCCC#Cc4cccc5c4CN(C4CCC(=O)NC4=O)C5=O)CC3)cn2cc1NC(=O)c1cccc(C(F)(F)F)n1` (centres unmarked) [Comparative Example 2, N-(2-(1-(6-(2-(2,6-dioxopiperidin-3-yl)-1-oxoisoindolin-4-yl)hex-5-yn-1-yl)piperidin-4-yl)-7-(2-hydroxypropan-2-yl)imidazo[1,2-a]pyridin-6-yl)-6-(trifluoromethyl)pyridine-2-carboxamide, reference compound], over 10000 nM; with `CC(C)(O)c1cc2nc(C3CCN(CC4CCN(c5ccc6c(c5)CN(C5CCC(=O)NC5=O)C6=O)CC4)CC3)cn2cc1NC(=O)c1cccc(C(F)(F)F)n1` (centres unmarked) [Example 7, N-(2-(1-((1-(2-(2,6-dioxopiperidin-3-yl)-1-oxoisoindolin-5-yl)piperidin-4-yl)methyl)piperidin-4-yl)-7-(2-hydroxypropan-2-yl)imidazo[1,2-a]pyridin-6-yl)-6-(trifluoromethyl)pyridine-2-carboxamide], 1.36 nM.
